Measurements from paper PMC12786355 (Biochimica et biophysica acta. Proteins and proteomics, 2024).

Legend:
[1] = target: T1, MCR-C (C-terminal domain of malonyl-CoA reductase) (Chloroflexus aurantiacus, UniProt A9WIU3); assay: NADPH absorbance at […] nm, product inhibition; type: biochemical
[2] = target: T1, MCR-C (C-terminal domain of malonyl-CoA reductase); assay: NADPH absorbance at […] nm, dead-end inhibition; type: biochemical

SMILES: CC(C)(COP(=O)(O)OP(=O)(O)OC[C@H]1O[C@@H](n2cnc3c(N)ncnc32)[C@H](O)[C@@H]1OP(=O)(O)O)[C@@H](O)C(=O)NCCC(=O)NCCS [CoA]
- Ki [1]: 238 ± 14 µM

SMILES: NC(=O)c1ccc[n+]([C@@H]2O[C@H](COP(=O)(O)OP(=O)(O)OC[C@H]3O[C@@H](n4cnc5c(N)ncnc54)[C@H](OP(=O)(O)O)[C@@H]3O)[C@@H](O)[C@H]2O)c1 [NADP^+]
- Ki [1]: 104 ± 15 µM

SMILES: O=CC(=O)O [glyoxylic acid]
- Ki [2]: 6 ± 0.8 µM
